Source: PubChem BioAssay AID1996
In brackets after ≈: the same amount, converted by molar mass.

Conditions: buffer; pH 7.4; 200.0 µM

SMILES | solubility kinetic
Cc1ccccc1N1CC2=C(C1=O)C(c1ccccc1)NC(=O)N2C (stereo unspecified) | 0.5 µg/mL (≈ 1.5 µM)
CCOc1ccc(OCCCCn2cnc3ccccc3c2=O)cc1 | 0.7 µg/mL (≈ 2.07 µM)
COc1cccc(CNCc2ccco2)c1O.O=C(O)C(=O)O | > 48.5 µg/mL
Cc1ccc(NC(=O)N[C@@H](CC(C)C)C(=O)O)c(C)c1 | > 41.8 µg/mL
COc1ccccc1OCCNC(=O)c1ccco1 | 33.4 µg/mL (≈ 128 µM)
N/C(=N/O)c1cccn1Cc1ccccc1[N+](=O)[O-] | > 39 µg/mL
Cc1cccc(NS(=O)(=O)c2ccc3c(c2)oc(=O)n3C)c1C | 1.5 µg/mL (≈ 4.51 µM)
O=C(COC(=O)c1cc(Cl)ccc1O)Nc1ccccc1C(=O)NC1CC1 | 2 µg/mL (≈ 5.14 µM)
CC1CCCN(C(=O)COC(=O)Cc2c[nH]c3ccccc23)C1 (stereo unspecified) | > 47.2 µg/mL
NC(=O)COc1ccccc1 | 21 µg/mL (≈ 139 µM)
COc1ccc(CC(=O)OCC(=O)NCc2ccc(F)cc2)cc1 | > 49.7 µg/mL
CCC(=O)OCC(=O)Nc1cc([N+](=O)[O-])ccc1Cl | > 43 µg/mL
COCC(=O)OCC(=O)Nc1ccccc1-c1ccccc1 | > 44.9 µg/mL
COc1ccc(CNc2ncnc3sccc23)cc1OC | 20.2 µg/mL (≈ 67 µM)
Nc1nc(Oc2ccc(F)cc2)c(Br)c(=O)[nH]1 | > 45 µg/mL
Cc1ccc(NC(=O)c2cc(C)nc3ccccc23)cc1 | 2.1 µg/mL (≈ 7.6 µM)
COc1ccccc1CNC(=O)C(C)Oc1ccccc1 (stereo unspecified) | > 42.8 µg/mL
Cc1ccsc1C(=O)NNC(=S)NC1CCCCC1 | > 44.6 µg/mL
CCC(=O)Nc1ccc2c(c1)nc(CN1CCCCC1)n2C | > 45.1 µg/mL
O=[N+]([O-])c1cccnc1N1CCN(c2ccc(F)cc2)CC1 | 12.1 µg/mL (≈ 40 µM)
N#C/C(=C(/O)c1ccc(C(=O)c2ccccc2)cc1)c1nc2ccccc2[nH]1 | < 0.3 µg/mL
Cc1cc(C(=O)OCC(=O)N(C)c2ccccc2)c(C)o1 | > 43.1 µg/mL
CSc1ncccc1C(=O)OCC(=O)NC(C)CCc1ccccc1 (stereo unspecified) | 29.1 µg/mL (≈ 81.2 µM)
CC1CCN(C(=O)CN2C(=O)C(=O)N(C)C2=O)c2ccccc2S1 (stereo unspecified) | > 52.1 µg/mL
Cc1nn(CC(=O)NCc2ccccc2)c(=O)c2cccn12 | > 44.4 µg/mL

SMILES | solubility kinetic
N/C(Cc1ccc([N+](=O)[O-])cc1)=N\OC(=O)c1ccccc1F | 2.6 µg/mL (≈ 8.19 µM)
Cc1sc2nc[nH]c(=O)c2c1-c1ccc(F)cc1 | 4.8 µg/mL (≈ 18.4 µM)
O=C(c1ccco1)N1CCN(C(=O)c2ccc(-c3ccc([N+](=O)[O-])cc3)o2)CC1 | 44.1 µg/mL (≈ 112 µM)
Cc1ccc(SCCNC(=O)c2ccccc2F)cc1 | 27.8 µg/mL (≈ 96.1 µM)
CCN(CC)c1ccc(C(=O)OCC(=O)Nc2cc(C)on2)cc1 | 4.6 µg/mL (≈ 13.9 µM)
Cc1c(C(=O)N2CCC(C)CC2)cccc1[N+](=O)[O-] | > 39.3 µg/mL
O=S(=O)(Nc1ncnc2sccc12)c1cccc(F)c1 | > 46.4 µg/mL
COc1ccc(NC(C)=O)c(C)c1 | > 26.9 µg/mL
Cc1ccc(Cl)cc1N1CCN(C(=S)NCc2ccco2)CC1 | 1 µg/mL (≈ 2.86 µM)
COc1ccc(C2SCC(=O)N2c2ccc(F)cc2)cc1 (stereo unspecified) | 35.2 µg/mL (≈ 116 µM)
CCN(CC)CCOC(=O)c1ccc(Cl)cc1Cl.Cl | > 49 µg/mL
CS(=O)(=O)CC(=O)Nc1ccc2nc3n(c(=O)c2c1)CCCCC3 | 43.2 µg/mL (≈ 124 µM)
O=C(Cc1c(F)cccc1Cl)NCCc1c[nH]c2ccccc12 | 4.8 µg/mL (≈ 14.5 µM)
O=C(Nc1cc(S(=O)(=O)N2CCCC2)ccc1Cl)c1cc(F)c(F)c(F)c1F | 17.7 µg/mL (≈ 40.5 µM)
Cc1cnc(NC(=O)CN2CCCCC2)s1.[O-][Cl+3]([O-])([O-])O | 24.7 µg/mL
Cc1ccc(-n2c(CNCc3ccc(F)cc3)nc3ccccc3c2=O)cc1 | 35.1 µg/mL (≈ 94 µM)
O=C(c1cc2cc(Cl)ccc2[nH]1)N1CCC2(CC1)OCCO2 | 16 µg/mL (≈ 49.9 µM)
CC(=O)c1cccc(NC(=O)c2cccc(NC(=O)c3ccco3)c2)c1 | < 0.4 µg/mL
Cc1cccc(-c2ncc(S(=O)(=O)C(C)(C)C)c(N)n2)c1 | 0.2 µg/mL (≈ 0.655 µM)
CN1CCN(c2ncnc(Cl)c2N)CC1 | > 34.2 µg/mL
O=C(Nc1ccccc1)Oc1ccccc1N1CCOCC1 | 31.9 µg/mL (≈ 107 µM)
CC(NC(=O)COc1ccccc1)C(=O)NCc1ccccc1Cl (stereo unspecified) | > 52 µg/mL
Cc1ccc(NC(=O)CCSc2ccccc2)c(C)c1 | < 0.6 µg/mL
Cc1noc(NS(=O)(=O)c2ccc(NS(=O)(=O)c3ccc(Cl)cc3)cc2)c1C | > 66.3 µg/mL
COc1ccc(NC(=O)c2oc3ccccc3c2CSC)cn1 | 3 µg/mL (≈ 9.14 µM)

SMILES | solubility kinetic
CCc1nc2cccnc2n1-c1ccc(C(=O)O)cc1 | > 40.1 µg/mL
Cc1ccc(F)cc1NS(=O)(=O)c1ccc(Cl)s1 | > 45.9 µg/mL
O=C(NCc1c(O)ccc2ccccc12)c1ccccc1 | 1 µg/mL (≈ 3.61 µM)
O=S(=O)(CCN1CCN(c2ccccn2)CC1)c1ccc(F)cc1 | 49 µg/mL (≈ 140 µM)
CN(Cc1cnccn1)Cc1nc(Cc2ccccc2Cl)no1 | 43.9 µg/mL (≈ 133 µM)
O=C(COC(=O)c1ccco1)Nc1cccc(S(=O)(=O)N2CCCCC2)c1 | 54.5 µg/mL (≈ 139 µM)
CCOc1ccc(C(=O)CCC(=O)N2CCN(c3ccccc3O)CC2)cc1 | 2.2 µg/mL (≈ 5.75 µM)
COc1cc(C(=O)OCC(C)=O)c([N+](=O)[O-])cc1OC | > 42.5 µg/mL
O=C(O)CSc1ncnc2scc(-c3ccccc3)c12 | > 45.4 µg/mL
COc1ccccc1C1Nc2ccccc2NC2=C1C(=O)CC(C)(C)C2 (stereo unspecified) | 51.6 µg/mL (≈ 148 µM)
O=C(CS(=O)(=O)c1ccc(F)cc1)NCc1ccccc1 | 16.2 µg/mL (≈ 52.7 µM)
O=C(COc1ccccc1Br)NC1CC1 | > 40.5 µg/mL
CC(=O)Oc1ccccc1-n1c(C)nc(=O)c(-c2ccccc2)c1C | 48.9 µg/mL (≈ 146 µM)
NC(N)=NC1=NC(=O)C(Cc2ccccc2)S1 (stereo unspecified) | > 37.2 µg/mL
CCOC(=O)c1c2c3c(cccc3n(C)c1=O)C(=O)c1ccccc1-2 | 2.6 µg/mL (≈ 7.8 µM)
COC(=O)c1ccccc1Oc1ccc(NC(=O)c2ccco2)cc1 | 49.6 µg/mL (≈ 147 µM)
O=C(Cc1cccs1)NCc1cccc(Br)c1 | > 46.5 µg/mL
COc1cccc(OC)c1C(=O)Nc1cccc2c1CCCC2 | 41.1 µg/mL (≈ 132 µM)
O=C(NC(=S)NCc1ccccc1)c1cccs1 | 1.4 µg/mL (≈ 5.07 µM)
O=C(OCC(=O)N1CCCC1=O)c1cc2ccccc2o1 | > 43.1 µg/mL
Cc1ccc(S(=O)(=O)NCCCn2ccnc2)cc1C(=O)NC(C)C | > 54.7 µg/mL
Cc1cc(NC(=O)c2cc([N+](=O)[O-])cc([N+](=O)[O-])c2)no1 | 9.8 µg/mL (≈ 33.5 µM)
O=C(NC1CC1)C(=O)c1c[nH]c2ccccc12 | > 34.2 µg/mL
CCc1ccc(OC)c(-c2csc(N)n2)c1 | > 35.1 µg/mL
CCN(CC)CCN(C(=O)c1cc2ccccc2cc1OC)c1nc2ccc(OC)cc2s1.Cl | 3.7 µg/mL

SMILES | solubility kinetic
O=C1N/C(=N\c2ccccn2)SC1Cc1ccc(Cl)cc1 (stereo unspecified) | < 0.2 µg/mL
Cc1ccc(OCC(=O)N2CC(C)OC(C)C2)c([N+](=O)[O-])n1 (stereo unspecified) | > 46.4 µg/mL
CCOC(=O)c1[nH]cnc1C(=O)Nc1ccccc1C | 10.3 µg/mL (≈ 37.7 µM)
Cc1nc2ccc(NC(=O)[C@H](C)N3C(=O)C4CC=CCC4C3=O)cc2s1 (stereo partly specified) | > 55.4 µg/mL
COC(=O)[C@H](Cc1ccccc1)NC(=O)N1CCCCC1 | > 43.6 µg/mL
Cc1nc2ccc(NS(=O)(=O)c3ccc(F)c(C)c3)cc2[nH]1 | > 47.9 µg/mL
O=C(CN1C(=O)NC2(CCCC2)C1=O)Nc1cc(C(F)(F)F)ccc1N1CCOCC1 | 5.2 µg/mL (≈ 11.8 µM)
CCc1c(C)nc(N2CCN(c3ccccc3F)CC2)[nH]c1=O | 5.6 µg/mL (≈ 17.7 µM)
OC(CN1CCOCC1)(c1ccccc1)c1ccccn1 (stereo unspecified) | > 42.7 µg/mL
COc1ccc(CCNC(=O)CCc2ccc(OC)cc2)cc1 | 11.4 µg/mL (≈ 36.4 µM)
O=C(CNC(=O)c1ccccc1)OCc1cccc(Br)c1 | 46.4 µg/mL (≈ 133 µM)
CCCOc1ccc(C(C)=O)cc1Cc1c(O)[nH]c(=S)[nH]c1=O | 29.4 µg/mL (≈ 87.9 µM)
O=C(COC(=O)Cc1c(F)cccc1Cl)NC(=O)Nc1ccccc1F | 1.9 µg/mL (≈ 4.96 µM)
CC1CCN(CCC(=O)Nc2ccccc2)CC1 | 29.5 µg/mL (≈ 120 µM)
Cc1ccc(CC(=O)Nc2cc(C)ccn2)cc1 | > 36 µg/mL
O=C(O)C1CCCN1C1=NS(=O)(=O)c2ccccc21 (stereo unspecified) | > 42 µg/mL
Cc1cc(Br)ccc1NC(=O)CNC(=O)CSc1nccn1C | > 59.6 µg/mL
O=C(NCC1CCCN(C2Cc3ccccc3C2)C1)c1cccs1 (stereo unspecified) | 40.1 µg/mL (≈ 118 µM)
COc1ccc(C(=O)COC(=O)/C=C/c2ccccc2[N+](=O)[O-])cc1 | 10.2 µg/mL (≈ 29.9 µM)
COc1ccccc1-n1c(-c2ccc(C)cc2)nc2ccccc2c1=O | 3.3 µg/mL (≈ 9.64 µM)
O=C(Cc1c[nH]c2ccccc12)NCc1ccncc1 | > 39.8 µg/mL
O=C(NOCc1ccccc1)c1ccc(Cl)cc1Cl | 36.4 µg/mL (≈ 123 µM)
Cc1cnc(C(=O)NCc2ccc(F)cc2)cn1 | > 36.8 µg/mL
CN(C)C(=O)c1cc2cc(Br)ccc2s1 | 7.4 µg/mL (≈ 26 µM)
S=c1ccc2ccccc2[nH]1 | 22.6 µg/mL (≈ 140 µM)

SMILES | solubility kinetic
Cc1cnc(C(=O)OCC(=O)c2ccc(F)cc2)cn1 | > 41.1 µg/mL
c1ccc(CN2CCC(Nc3ncnc4sccc34)CC2)cc1 | 46.2 µg/mL (≈ 142 µM)
CCCC(=O)Nc1ccc(-c2nc3ncccc3o2)cc1 | 2.1 µg/mL (≈ 7.46 µM)
COc1ccc(NC(=O)C2CC(c3c(F)cccc3Cl)=NO2)cc1 (stereo unspecified) | 40.8 µg/mL (≈ 117 µM)
O=C(c1cccnc1)N1c2ccccc2Sc2ccccc21 | 43.1 µg/mL (≈ 142 µM)
On1c(-c2ccc(Cl)cc2Cl)nc2ncccc21 | > 42 µg/mL
C/C(=N\Nc1ccc2nncn2n1)c1cccs1 | > 38.7 µg/mL
CCN(CC)C(=O)c1cccc(NC(=O)C2=COCCO2)c1 | > 45.7 µg/mL
CC(OC(=O)c1cnccn1)C(=O)c1ccccc1 (stereo unspecified) | > 38.4 µg/mL
N#Cc1ccccc1NC(=O)CN1CC=C(c2ccccc2)CC1 | 15.7 µg/mL (≈ 49.5 µM)
CN1C(=S)SC2CS(=O)(=O)CC21 (stereo unspecified) | > 33.5 µg/mL
Cc1ccc(CCC(=O)Nc2ccccc2C(=O)O)o1 | > 41 µg/mL
O=C(NCc1csc(-c2cccs2)n1)c1cccc(Cl)c1 | 7.9 µg/mL (≈ 23.6 µM)
CCN1C(=O)C(=O)N(Cc2ccc(OC)c(F)c2)C1=O | 40.4 µg/mL (≈ 144 µM)
O=C(Cc1ccc(-c2ccccc2)cc1)NC1CCCC1 | < 0.6 µg/mL
COC(=O)c1ccc(=O)n(CC(=O)c2ccc(Cl)cc2)c1 | > 45.9 µg/mL
Cc1cc(C(=O)OCC(=O)NCc2ccccc2)c(C)o1 | > 43.1 µg/mL
O=C(COC(=O)/C=C/c1ccc(F)cc1)NC1CCCCCC1 | 3.7 µg/mL (≈ 11.6 µM)
O=C(O)CCCCNS(=O)(=O)/C=C/c1ccccc1 | > 42.5 µg/mL
OC1CCC(Nc2ncnc3sccc23)CC1 (stereo unspecified) | > 37.4 µg/mL
O=C(NCc1ccccc1)C12CC3CC(CC(Cl)(C3)C1)C2 | 5 µg/mL (≈ 16.5 µM)
